# Measurements as given in the METLIN SMRT retention time set (Domingo-Almenara et al. 2019).
# Test: gradient 5% acetonitrile 3 min, to 50% in 2 min, to 85% in 15 min, held 3 min, 100 µL/min
# Settings: column: Zorbax Extend-C18 2.1 x 50 mm; eluents: water / acetonitrile, 0.1% formic acid
# In short: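 Pure standards were analyzed in mixtures of ~100 molecules using HPLC coupled to a quadrupole time-of-flight mass spectrometer, in both positive and negative ionization mode. Separation used a Zorbax Extend-C18 column (2.1 × 50 mm, 1.8 μm) at 100 μL/min, with water and acetonitrile each containing 0.1% formic acid. Dead and dwell volumes were 40 μL and 900 μL, and data were collected over 3 months. Retention time was read from computationally picked adduct peaks, each inspected manually.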
row,Compound,RP-LC retention time [s]
1,CCOC(=O)CNC(=O)NCC(c1cccnc1)c1c[nH]c2ccccc12 (centres undefined),598
2,CCc1cc(-c2csc(S(=O)(=O)NCc3ccc(OC(C)C)cc3)c2)on1,1070
3,Cc1ccc(N2C(=O)C3N=NN(Cc4nc(-c5ccccc5C)no4)C3C2=O)cc1C (centres undefined),1060
4,CCOc1ccc(N2CC(NC(=O)C(=O)c3c[nH]c4ccccc34)CC2=O)cc1 (centres undefined),791
5,COc1ccc(NC(=O)Nc2c(-c3cccc(C)c3)nc3ccccn23)cc1,658
6,Cc1ccc(C(O)Cn2ccn3nc(-c4ccc(F)cc4)cc3c2=O)cc1 (centres undefined),966
7,COc1ccc(NS(=O)(=O)c2cc(-c3[nH]ncc3C(=O)N3CCCC3)oc2C)cc1,676
8,COc1ccc([N+](=O)[O-])cc1NS(=O)(=O)c1ccc(C)cc1,961
9,Cc1oncc1CN1CCN(C(=O)c2c(F)cccc2F)CC1,562
10,CCOc1ccc(-c2noc(CN3C(=O)COc4ccc(C(C)(C)C)cc43)n2)cc1OC,1230
11,O=C(CCS(=O)(=O)c1ccccc1)N(Cc1ccccn1)Cc1ccco1,610
12,CCc1noc(NC(C)=O)c1-c1ccc(C)c(S(=O)(=O)Nc2ccc(Cl)cc2C)c1,888
13,C=CCN1CC(=O)N2Cc3[nH]c4ccccc4c3C[C@H]2C1=O,708
14,COc1ccc(-c2c(C(=O)Nc3ccc(OC)cc3OC)nc3ccccn23)cc1,650
15,CC1CS(=O)(=O)N(c2cccc(C(=O)N3CCN(c4ccccc4F)CC3)c2)C1=O (centres undefined),790
16,CCOC(=O)N1CCN(S(=O)(=O)c2cn(C)c(=O)n(C)c2=O)CC1,621
17,Cc1ccc(Nc2c(-c3ccc(C)cc3)nc3nc(C)cc(C)n23)cc1,780
18,O=C(NCc1ccco1)c1ccc2c(c1)nnn2Cc1ccc(F)cc1,808
19,Cc1noc(-c2cccnc2N2CCCN(Cc3cc(F)cc(F)c3)CC2)n1,659
20,Cc1ccc(-n2ccc(=O)c(-c3nc(-c4ccc(OC(C)C)cc4)no3)n2)cc1,1060
21,Cc1ccc(CN(C)C(=O)NC(C)C)s1,804
22,CCc1ccc(-c2noc(Cn3cnc4c(nnn4-c4ccccc4OC)c3=O)n2)cc1,1040
23,Cc1ccc2c(c1)C(c1ccccc1)NCC(=O)N2 (centres undefined),544
24,O=C(NC1(c2nc(-c3ccccc3)no2)CCCCC1)c1ccc(C(F)(F)F)cc1,1250

row,Compound,RP-LC retention time [s]
1,Cc1noc(C)c1S(=O)(=O)N1CCc2c(c(-c3nnc(-c4ccc(F)cc4)o3)nn2C)C1,910
2,CCCN1C(=O)Cc2cc(C(=O)N3CCN(c4ccc(OC)cc4)CC3)ccc21,748
3,COc1ccc(CN2CC3(CCN(S(=O)(=O)C(C)C)CC3)C2=O)cc1,787
4,CCCN1CCn2cc(S(=O)(=O)Nc3ccccc3F)cc2C1=O,718
5,COc1ccc(OC)c(-c2cc(C(=O)Nc3ccc4c(c3)CCC(=O)N4)[nH]n2)c1,681
6,O=S(=O)(c1ccc2c(c1)-c1oncc1CO2)N1CCCc2ccccc21,1020
7,CCOc1cc(-c2nc(C3CC(=O)N(c4ccc(CC)cc4)C3)no2)cc(OCC)c1OCC (centres undefined),1300
8,COCC(=O)N1CCC([C@H]2[C@@H](OC)C(=O)N2C(C)C)CC1,602
9,CCOc1ccc(-c2cn3ccn(-c4ccc(OC)cc4)c(=O)c3n2)cc1,830
10,COc1ccccc1NC(=O)Cn1c(-c2nc(C(C)C)no2)cccc1=O,927
11,COc1ccc(-c2ncc3c(n2)CCN(S(=O)(=O)c2ccc(C)c(Cl)c2)C3)cc1,1180
12,N#CC1=CN(c2cccc(C(F)(F)F)c2)c2ccccc2S1(=O)=O,930
13,Cc1ccc(C)c(S(=O)(=O)Nc2ccc(-c3cn4ccc(C)nc4n3)cc2)c1,678
14,Cc1onc(-c2ccccc2Cl)c1C(=O)Nc1nc(-c2ccc([N+](=O)[O-])cc2)cs1,1100
15,Cc1ccc(CNC(=O)C2(C)CN(S(C)(=O)=O)CC(=O)N2c2ccc(C)c(Cl)c2)cc1 (centres undefined),874
16,Cc1cc(N2CCN(C(=O)C(C)Oc3cccc(Cl)c3)CC2)nc2nncn12 (centres undefined),644
17,O=C(Nc1ccccc1)N(Cc1cccnc1)C1CN(Cc2ccc(F)c(F)c2)C1,965
18,COc1ccc(Cl)c2c(=O)c3c([nH]c12)CCN(CC(=O)Nc1ccccc1F)C3,604
19,CCc1ccc(OCC(=O)Nc2nnc(C3CC(=O)N(c4ccc(F)cc4)C3)o2)cc1 (centres undefined),849
20,Cn1ncc2c3ccccc3n(CC(=O)NCc3cccs3)c2c1=O,764
21,COC(=O)C1=C(C)N(C(C)C)C(=O)C1(NC(=O)c1ccccc1OC)C(F)(F)F (centres undefined),1010
22,Cc1ccc2c(c1)NN=C(C(=O)N1CCC(C)CC1)S2(=O)=O,809
23,c1ccc(-c2ccc(CNCCc3c[nH]c4ccccc34)o2)cc1,735
24,CCSc1ccccc1C(=O)Nc1cccc2ccc(-n3ccnc3)nc12,668

# Further lines, results first:
row,RP-LC retention time [s],Compound
1,614,CC(C)CN1C(=O)c2cccn2CC1C(=O)NCCN(C)C1CCCCC1 (centres undefined)
2,1100,Cc1cccc(NC(=O)N2c3ccccc3CC2c2nc(C3CC3)no2)c1C (centres undefined)
3,832,Cc1ccc(NC(=O)N2CCC(n3cnc4cc(F)ccc4c3=O)CC2)cc1F
4,663,CCn1nc(-c2ccc(OC)c(S(=O)(=O)N3CCC(C(N)=O)CC3)c2)c2c(c1=O)CCCC2
5,760,CC(C)c1noc(-c2ccn3c(CC(=O)NC4CCCCC4)nnc3c2)n1
6,656,O=C(NC1CCCCCC1)c1cccnc1N1CCNC(c2ccccc2)C1 (centres undefined)
7,565,CCS(=O)(=O)N1CCCC(n2c(C)cnc2-c2ccncc2)C1 (centres undefined)
8,614,Cc1cccc2nnc(N3CCN(C(=O)c4ccsc4)CC3)n12
9,572,NC(=O)C1CCN(C(=O)c2c[nH]c3c(C(F)(F)F)cccc3c2=O)CC1
10,923,CC(=O)Nc1ccc(-c2noc(C3CCCN(C(=O)CCC4CCCC4)C3)n2)cc1 (centres undefined)
11,610,COCCCNC(=O)C1CCCN(c2nc3ccc(Cl)cc3[nH]2)C1 (centres undefined)
12,616,Cc1ccccc1NC(=O)N1CC(Cc2nncn2C(C)C)C1
13,904,Cc1cc(Cl)ccc1NC(=O)Cn1cccc1-c1nnc(C2CC2)o1
14,617,Cn1c(CNC(=O)C2CCC2)nc2c1CN(S(=O)(=O)c1cccs1)CC2
15,653,CN(CCCNC(=O)C1CCCN(c2nnc(-n3cccc3)s2)C1)C1CCCCC1 (centres undefined)
16,608,O=C(NCCN1CCCCCC1)C1CCCN(c2nn3c(=O)c4c(nc3s2)CCCC4)C1 (centres undefined)
17,1090,COC(=O)c1c(C)c(C(=O)C(C)N(Cc2ccc(F)cc2)C(=O)C2CCCC2)c(C)n1C (centres undefined)
18,709,Cc1cc(S(=O)(=O)N2CC(N(Cc3ccncc3)CC3CC3)C2)ccc1F
19,908,CC1(C)CC(=O)C2=C(C1)N(CC1CCCO1)C(=O)C2(NC(=O)c1ccccc1F)C(F)(F)F (centres undefined)
20,783,CCC(C)(C)C(=O)N1CCCC(c2nc(CCNC(=O)C(C)C)cs2)C1 (centres undefined)
21,782,CC(Oc1ccc(Cl)cc1)C(=O)NCC1CCOCC1 (centres undefined)

row,RP-LC retention time [s],Compound
1,1300,Cc1cccc(-c2noc(C3CCCN3S(=O)(=O)c3ccc(Cl)cc3C)n2)c1 (centres undefined)
2,575,COCC1CN(C(=O)c2sccc2C)CC12CCNCC2 (centres undefined)
3,875,CCNC(=O)c1nnc(-c2ccc(S(=O)(=O)N3CCC(C)CC3)cc2)o1
4,585,O=C(CCc1nnc2ccc(N3CCCC3)nn12)N1CCN(c2ccccn2)CC1
5,571,CCNc1cc(N2CCCC(CCC(=O)N3CCCC(CN4CCCC4)C3)C2)ncn1 (centres undefined)
6,707,CCn1cc(CN2CCC(C(=O)NCc3ccccc3C)CC2)c2cc(OC)ccc21
7,939,CC(C)c1ccc(NC(=O)C2CCCN(S(=O)(=O)c3c[nH]c(C(=O)N4CCCC4)c3)C2)cc1 (centres undefined)
8,793,Cn1c(=O)c(N2CCN(C(=O)c3cccs3)CC2)nc2cccnc21
9,829,O=C(NC1CCCCCC1)c1ccc2c(c1)nc1n2CCN(Cc2ccccc2)C1=O
10,1050,O=C(NCc1cccc(Br)c1)C1CCCN(c2nccnc2Oc2ccccc2)C1 (centres undefined)
11,1080,CCN(CC)C(=O)c1cnc2snc(C)c2c1N1CCC(C(=O)Nc2ccc(Br)c(C)c2)CC1
12,631,O=C(C1CC1)N1CCC(c2noc(-c3cccnc3)n2)C1 (centres undefined)
13,864,O=C(c1ccco1)N1CCN(c2ccc(-c3noc(C4CC4)n3)cc2)CC1
14,927,O=C(NCc1csc(-c2cccs2)n1)C1CCN(S(=O)(=O)c2cccc(Cl)c2)CC1
15,694,Cc1noc(COC2CCN(C(=O)NCCc3ccccc3)CC2)n1
16,819,Cc1cc(NC(=O)N(C)CC2CCOCC2)ccc1Br
17,967,Cc1cc(C)cc(S(=O)(=O)N2CCC(C(=O)NCc3csc(-c4cccs4)n3)CC2)c1
18,828,CN1C(=O)c2cccnc2Sc2cc(NC(=O)C3CCCCC3)ccc21
19,907,CSc1ncccc1C(=O)N1CCCC1c1nc(-c2ccc(F)cc2F)no1 (centres undefined)
20,800,CCOc1ccc(OCCNC(=O)NC2CCCCC2)cc1
